PubChem BioAssay AID256 (DTP/NCI, 2004)
Several values for one entry are separate records, joined by “and”; a condition that tells them apart may be missing. Equal values may be shown once. Inconclusive results and toxic doses are left out. Rule for the calls: active = survival T/C of 150% or more; inactive = T/C below 125% in these data.

Tested on: CD2F1 mice, L1210 leukemia ip, survival T/C
Experiment: NCI In Vivo Anticancer Drug Screen. Data for tumor model L1210 Leukemia (intraperitoneal) in CD2F1 (CDF1) mice
Conditions: endpoint: mean survival time, higher = longer survival
Method in brief: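 Read-out first: treated-group measurement over vehicle-control measurement, expressed as a ratio. Animals bore a transplanted tumor line and were dosed with compound or vehicle.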

[1] = dose: 100.0 mg/kg/injection, schedule: Q01DX009 (ip), vehicle: saline
[2] = dose: 200.0 mg/kg/injection, schedule: Q01DX009 (ip), vehicle: saline
[3] = dose: 100.0 mg/kg/injection, schedule: Q01DX009 (ip), vehicle: saline with Tween-80
[4] = dose: 200.0 mg/kg/injection, schedule: Q01DX009 (ip), vehicle: saline with Tween-80
[5] = dose: 100.0 mg/kg/injection, schedule: Q01DX001 (ip), vehicle: saline with Tween-80
[6] = dose: 200.0 mg/kg/injection, schedule: Q01DX001 (ip), vehicle: saline with Tween-80
[7] = dose: 400.0 mg/kg/injection, schedule: Q01DX001 (ip), vehicle: saline with Tween-80
[8] = dose: 400.0 mg/kg/injection, schedule: Q01DX009 (ip), vehicle: saline with Tween-80
[9] = dose: 100.0 mg/kg/injection, schedule: Q04DX003 (ip), vehicle: saline with Tween-80
[10] = dose: 200.0 mg/kg/injection, schedule: Q04DX003 (ip), vehicle: saline with Tween-80
[11] = dose: 12.5 mg/kg/injection, schedule: Q01DX009 (ip), vehicle: saline with Tween-80
[12] = dose: 25.0 mg/kg/injection, schedule: Q01DX009 (ip), vehicle: saline with Tween-80
[13] = dose: 400.0 mg/kg/injection, schedule: Q04DX003 (ip), vehicle: saline with Tween-80
[14] = dose: 75.0 mg/kg/injection, schedule: Q01DX001 (ip), vehicle: saline
[15] = dose: 25.0 mg/kg/injection, schedule: Q04DX002 (ip), vehicle: saline with Tween-80
[16] = dose: 50.0 mg/kg/injection, schedule: Q04DX002 (ip), vehicle: saline with Tween-80
[17] = dose: 100.0 mg/kg/injection, schedule: Q04DX002 (ip), vehicle: saline with Tween-80
[18] = dose: 50.0 mg/kg/injection, schedule: Q01DX009 (ip), vehicle: Klucel (hydroxypropylcellulose) (HPC)
[19] = dose: 100.0 mg/kg/injection, schedule: Q01DX009 (ip), vehicle: Klucel (hydroxypropylcellulose) (HPC)
[20] = dose: 200.0 mg/kg/injection, schedule: Q01DX009 (ip), vehicle: Klucel (hydroxypropylcellulose) (HPC)
[21] = dose: 100.0 mg/kg/injection, schedule: Q01DX001 (ip), vehicle: Klucel (hydroxypropylcellulose) (HPC)
[22] = dose: 200.0 mg/kg/injection, schedule: Q01DX001 (ip), vehicle: Klucel (hydroxypropylcellulose) (HPC)

Measured: T/C

O=C(O)c1ccc2cc(O)ccc2c1
inactive: [1] 100 % of control | [2] 94 % of control

O=C1CC2=C(CC(O)=CC=C2)C(=O)O1
inactive: [1] 101 % of control | [2] 93 % of control

O=C1CNC(=O)N1c1cccc(Cl)c1
inactive: [3] 96 % of control | [4] 92 % of control

CC(=O)OCC(=O)[C@@]12OC(C)(C)O[C@@H]1C[C@H]1[C@@H]3CC(C=O)=C4C=C(OCCCl)CC[C@]4(C)[C@@]3(F)[C@@H](O)C[C@@]12C
inactive: dose: 100.0 mg/kg/injection, schedule: Q04DX003 (ip), vehicle: acetone 103 % of control | dose: 200.0 mg/kg/injection, schedule: Q04DX003 (ip), vehicle: acetone 105 % of control | dose: 400.0 mg/kg/injection, schedule: Q04DX003 (ip), vehicle: acetone 102 % of control

CCOc1ccc(-n2c(O)c(N=Nc3ccccc3OC)c(=O)n(-c3ccc(OC)cc3)c2=S)cc1
inactive: [5] 101 % of control | [6] 95 % of control | [7] 94 % of control

CN(N=O)C(=O)NCC1OC(OC2(CNC(=O)N(C)N=O)OC(CNC(=O)N(C)N=O)C(O)C2O)C(O)C(O)C1O (stereo not drawn)
inactive: dose: 12.5 mg/kg/injection, schedule: Q01DX009 (ip), vehicle: water 102 % of control | dose: 25.0 mg/kg/injection, schedule: Q01DX009 (ip), vehicle: water 104 % of control | dose: 50.0 mg/kg/injection, schedule: Q01DX009 (ip), vehicle: water 110 % of control | dose: 100.0 mg/kg/injection, schedule: Q01DX009 (ip), vehicle: water 117 % of control

OC(c1ccccc1)(c1ccccc1)c1ccc(Cl)cc1
inactive: [3] 97 % of control | [4] 101 % of control | [8] 101 % of control

Cc1ccc2ncccc2c1[N+](=O)[O-]
inactive: [9] 101 % of control | [10] 95 % of control

CC(=O)[O][Hg][c]1ccccc1
inactive: dose: 12.5 mg/kg/injection, schedule: Q01DX001 (ip), vehicle: Klucel (hydroxypropylcellulose) (HPC) 100 % of control | [11] 106 % of control | dose: 25.0 mg/kg/injection, schedule: Q01DX001 (ip), vehicle: Klucel (hydroxypropylcellulose) (HPC) 106 % of control | [12] 98 % of control

CC(=O)N1CCCCC1C/C(C)=N/O (stereo not drawn)
inactive: [9] 105 % of control | [10] 95 % of control | [13] 109 % of control

NC(=O)c1ccccc1C(=O)O
inactive: dose: 100.0 mg/kg/injection, schedule: Q01DX001 (ip), vehicle: saline 105 % of control | dose: 200.0 mg/kg/injection, schedule: Q01DX001 (ip), vehicle: saline 102 % of control | dose: 400.0 mg/kg/injection, schedule: Q01DX001 (ip), vehicle: saline 94 % of control

BrCC1OCCCO1
inactive: [11] 105 % of control | [12] 111 % of control | dose: 50.0 mg/kg/injection, schedule: Q01DX009 (ip), vehicle: saline with Tween-80 115 % of control

CCOC1(OCC)C2C=CC1C1C(=O)OC(=O)C12 (stereo not drawn)
inactive: [14] 103 % of control | dose: 150.0 mg/kg/injection, schedule: Q01DX001 (ip), vehicle: saline 108 % of control | dose: 300.0 mg/kg/injection, schedule: Q01DX001 (ip), vehicle: saline 102 % of control

C=C(Cc1ccccc1)C(=O)O
inactive: [15] 92 % of control | [16] 92 % of control | [17] 95 % of control

C[CH2][Sn]1([CH2]C)[O]C2C(CO)OC(n3ccc(N)nc3=O)C2[O]1 (stereo not drawn)
inactive: dose: 1.56 mg/kg/injection, schedule: Q01DX005 (ip), vehicle: water 97 % of control | dose: 3.13 mg/kg/injection, schedule: Q01DX005 (ip), vehicle: water 111 % of control | dose: 6.25 mg/kg/injection, schedule: Q01DX005 (ip), vehicle: water 100 % of control | dose: 12.5 mg/kg/injection, schedule: Q01DX005 (ip), vehicle: other 103 % of control | dose: 12.5 mg/kg/injection, schedule: Q01DX005 (ip), vehicle: water 105 % of control

Oc1ccccc1C=NCC1CCCC[N-]1.Oc1ccccc1C=NCC1CCCC[N-]1.[Ni+2] (stereo not drawn)
inactive: [15] 101 % of control | [16] 98 % of control | [5] 96 % of control | [17] 96 % of control | dose: 132.0 mg/kg/injection, schedule: Q01DX001 (ip), vehicle: saline with Tween-80 101 % of control | [6] 102 % of control | dose: 200.0 mg/kg/injection, schedule: Q04DX002 (ip), vehicle: saline with Tween-80 101 % of control | dose: 300.0 mg/kg/injection, schedule: Q01DX001 (ip), vehicle: saline with Tween-80 107 % of control

CCOC(CNC(C)c1ccc2cc(OC)c(OC)cc2c1)OCC (stereo not drawn)
inactive: dose: 12.5 mg/kg/injection, schedule: Q01DX009 (ip), vehicle: Klucel (hydroxypropylcellulose) (HPC) 97 % of control | dose: 25.0 mg/kg/injection, schedule: Q01DX009 (ip), vehicle: Klucel (hydroxypropylcellulose) (HPC) 92 % of control | [18] 89 % of control | [19] 95 % of control | [20] 100 % of control | dose: 400.0 mg/kg/injection, schedule: Q01DX009 (ip), vehicle: Klucel (hydroxypropylcellulose) (HPC) 90 % of control

O=C(O)CNC(=O)C(CSC(c1ccccc1)(c1ccccc1)c1ccccc1)NC(c1ccccc1)(c1ccccc1)c1ccccc1 (stereo not drawn)
inactive: [14] 97 % of control

CCc1ccc(OC(C)=O)cc1
inactive: [18] 98 % of control | [19] 98 % of control | [20] 90 % of control

C=CC(C)(C)S(=O)[O-].C[c-]1[c-][c-][c-][c-]1.[C-]#[O+].[C-]#[O+].[Fe+6]
inactive: dose: 50.0 mg/kg/injection, schedule: Q04DX002 (ip), vehicle: saline 109 % of control | dose: 100.0 mg/kg/injection, schedule: Q04DX002 (ip), vehicle: saline 102 % of control

CC1(C)CC2(OC2c2ccccc2[N+](=O)[O-])C(=O)c2ccccc21 (stereo not drawn)
inactive: [3] 98 % of control | [9] 96 % of control | [4] 96 % of control | [10] 98 % of control | [8] 96 % of control | [13] 91 % of control

CCOS(=O)(=O)c1ccc(N)c([N+](=O)[O-])c1
inactive: [21] 100 % of control | [19] 100 % of control | [22] 111 % of control | [20] 100 % of control | dose: 400.0 mg/kg/injection, schedule: Q01DX001 (ip), vehicle: Klucel (hydroxypropylcellulose) (HPC) 100 % of control

O=C1NC23C(=O)N(C4CCCCC4)CC2(Cc2ccccc2)c2ccccc2N3C1=O (stereo not drawn)
inactive: [5] 86 % of control | [6] 92 % of control | [7] 86 % of control

O=C(Nc1cc([N+](=O)[O-])ccc1F)N(CCO)C1CCCCC1
inactive: [3] 98 % of control | [4] 98 % of control | [8] 103 % of control

CC(C)(C)C(=O)CC(=O)C(C)(C)C.CC(C)(C)C(=O)CC(=O)C(C)(C)C.[Cu]
inactive: dose: 9.5 mg/kg/injection, schedule: Q01DX009 (ip), vehicle: saline with Tween-80 98 % of control | dose: 9.5 mg/kg/injection, schedule: Q04DX003 (ip), vehicle: saline with Tween-80 90 % of control | dose: 19.0 mg/kg/injection, schedule: Q01DX009 (ip), vehicle: saline with Tween-80 102 % of control | dose: 19.0 mg/kg/injection, schedule: Q04DX003 (ip), vehicle: saline with Tween-80 90 % of control | dose: 38.0 mg/kg/injection, schedule: Q04DX003 (ip), vehicle: saline with Tween-80 91 % of control

CN(C)N=Nc1c(Cl)cccc1Cl
inactive: dose: 9.38 mg/kg/injection, schedule: Q01DX009 (ip), vehicle: Klucel (hydroxypropylcellulose) (HPC) 101 % of control | dose: 18.75 mg/kg/injection, schedule: Q01DX009 (ip), vehicle: Klucel (hydroxypropylcellulose) (HPC) 95 % of control and 103 % of control | dose: 37.5 mg/kg/injection, schedule: Q01DX009 (ip), vehicle: Klucel (hydroxypropylcellulose) (HPC) 97 % of control and 110 % of control | dose: 300.0 mg/kg/injection, schedule: Q01DX009 (ip), vehicle: Klucel (hydroxypropylcellulose) (HPC) 89 % of control

CC(=O)Nc1nc(CCl)cs1
inactive: [21] 92 % of control | [22] 87 % of control
